System: MV-4-11 cells
Assay: Gene expression microarray analysis (Affymetrix PrimeView) and GSEA
Type: cell-based, human
Parameters: RFU PODN (11730768_x_at) / Fold change /veh PODN (11730768_x_at) / RFU LINC00158 (11744669_a_at) / Fold change /veh LINC00158 (11744669_a_at) / RFU DUSP10 (11751237_a_at) / Fold change /veh DUSP10 (11751237_a_at) / RFU ID3 (11757404_x_at) / Fold change /veh ID3 (11757404_x_at) / RFU PLEKHG5 (11737974_s_at) / Fold change /veh PLEKHG5 (11737974_s_at) / RFU LRRC4B (11730491_at) / Fold change /veh LRRC4B (11730491_at) / RFU GIMAP4 (11747438_a_at) / Fold change /veh GIMAP4 (11747438_a_at) / RFU KRT8 (11758183_x_at) / Fold change /veh KRT8 (11758183_x_at) / RFU CNN1 (11734310_a_at) / Fold change /veh CNN1 (11734310_a_at) / RFU VPS37D (11726825_at) / Fold change /veh VPS37D (11726825_at) / RFU C10orf10 (11716522_x_at) / Fold change /veh C10orf10 (11716522_x_at) / RFU KIR2DL2 /// KIR2DL4 /// KIR2DL5A /// KIR2DL5B /// KIR2DS1 /// KIR2DS2 /// KIR2DS3 /// KIR2DS4 /// KIR3DL3 /// KIR3DL3 /// KIR3DS1 (11738374_at) / Fold change /veh KIR2DL2 /// KIR2DL4 /// KIR2DL5A /// KIR2DL5B /// KIR2DS1 /// KIR2DS2 /// KIR2DS3 /// KIR2DS4 /// KIR3DL3 /// KIR3DL3 /// KIR3DS1 (11738374_at) / RFU C1QL1 (11718748_at) / Fold change /veh C1QL1 (11718748_at) / RFU TMPRSS4 (11747572_a_at) / Fold change /veh TMPRSS4 (11747572_a_at) / RFU HAMP (11756126_x_at) / Fold change /veh HAMP (11756126_x_at) / RFU RNFT2 (11725882_a_at) / Fold change /veh RNFT2 (11725882_a_at) / RFU NR4A2 (11747474_a_at) / Fold change /veh NR4A2 (11747474_a_at) / RFU ABCC12 (11746883_a_at) / Fold change /veh ABCC12 (11746883_a_at) / RFU TMEM136 (11760407_x_at) / Fold change /veh TMEM136 (11760407_x_at) / RFU CLDN22 /// WWC2 (11732394_at) / Fold change /veh CLDN22 /// WWC2 (11732394_at) / RFU HLA-DPB1 (11760878_x_at) / Fold change /veh HLA-DPB1 (11760878_x_at) / RFU SPINT1 (11716480_a_at) / Fold change /veh SPINT1 (11716480_a_at) / RFU GAP43 (11754022_s_at) / Fold change /veh GAP43 (11754022_s_at) / RFU A4GNT (11735810_at) / Fold change /veh A4GNT (11735810_at) / RFU PRB3 (11715151_x_at) / Fold change /veh PRB3 (11715151_x_at) / RFU TUBB4B (11761932_at) / Fold change /veh TUBB4B (11761932_at) / RFU CAPN14 (11732068_a_at) / Fold change /veh CAPN14 (11732068_a_at) / RFU TMCC2 (11721928_a_at) / Fold change /veh TMCC2 (11721928_a_at) / RFU IRGQ (11745062_a_at) / Fold change /veh IRGQ (11745062_a_at) / RFU FAM174B (11720279_a_at) / Fold change /veh FAM174B (11720279_a_at) / RFU TMPRSS4 (11748680_a_at) / Fold change /veh TMPRSS4 (11748680_a_at) / RFU FAM212B (11763350_a_at) / Fold change /veh FAM212B (11763350_a_at) / RFU PLEKHG5 (11743358_a_at) / Fold change /veh PLEKHG5 (11743358_a_at) / RFU ZSCAN30 (11745921_a_at) / Fold change /veh ZSCAN30 (11745921_a_at) / RFU CMKLR1 (11741424_a_at) / Fold change /veh CMKLR1 (11741424_a_at) / RFU LOC101060620 /// MAPK8IP1 (11723275_at) / Fold change /veh LOC101060620 /// MAPK8IP1 (11723275_at) / RFU SPTSSB (11747773_x_at) / Fold change /veh SPTSSB (11747773_x_at) / RFU PRSS12 (11739890_at) / Fold change /veh PRSS12 (11739890_at) / RFU BIN1 (11741810_x_at) / Fold change /veh BIN1 (11741810_x_at) / RFU WNT11 (11732464_a_at) / Fold change /veh WNT11 (11732464_a_at) / RFU C10orf10 (11716521_a_at) / Fold change /veh C10orf10 (11716521_a_at) / RFU C5orf56 (11738089_at) / Fold change /veh C5orf56 (11738089_at) / RFU CYB561 (11721691_x_at) / Fold change /veh CYB561 (11721691_x_at) / RFU ANKRD19P (11752326_a_at) / Fold change /veh ANKRD19P (11752326_a_at) / RFU OR2T12 /// OR2T33 /// OR2T8 (11738714_s_at) / Fold change /veh OR2T12 /// OR2T33 /// OR2T8 (11738714_s_at) / RFU VCAN (11748164_a_at) / Fold change /veh VCAN (11748164_a_at) / RFU JSRP1 (11732532_at) / Fold change /veh JSRP1 (11732532_at) / RFU KRTAP10-11 (11738290_x_at) / Fold change /veh KRTAP10-11 (11738290_x_at) / RFU MYO3A (11730013_a_at) / Fold change /veh MYO3A (11730013_a_at) / RFU EBF3 (11725865_a_at) / Fold change /veh EBF3 (11725865_a_at) / RFU CAMK2N1 (11719241_x_at) / Fold change /veh CAMK2N1 (11719241_x_at) / RFU C5orf56 (11738088_a_at) / Fold change /veh C5orf56 (11738088_a_at) / RFU OLFML3 (11715873_a_at) / Fold change /veh OLFML3 (11715873_a_at) / RFU LOC100653217 /// NTM (11731650_a_at) / Fold change /veh LOC100653217 /// NTM (11731650_a_at) / RFU MAPK11 (11762145_a_at) / Fold change /veh MAPK11 (11762145_a_at) / RFU FIZ1 (11724087_x_at) / Fold change /veh FIZ1 (11724087_x_at) / RFU OASL (11726364_x_at) / Fold change /veh OASL (11726364_x_at) / RFU SOX15 (11748057_x_at) / Fold change /veh SOX15 (11748057_x_at) / RFU CD79A (11719716_a_at) / Fold change /veh CD79A (11719716_a_at) / RFU HIST1H1D (11736915_at) / Fold change /veh HIST1H1D (11736915_at) / RFU CASKIN2 (11723855_a_at) / Fold change /veh CASKIN2 (11723855_a_at) / RFU LOC730098 (11760151_x_at) / Fold change /veh LOC730098 (11760151_x_at) / RFU OR4N2 (11742367_at) / Fold change /veh OR4N2 (11742367_at) / RFU PRRT2 (11749266_a_at) / Fold change /veh PRRT2 (11749266_a_at) / RFU SNX32 (11753110_a_at) / Fold change /veh SNX32 (11753110_a_at) / RFU CDHR5 (11726645_a_at) / Fold change /veh CDHR5 (11726645_a_at) / RFU RCAN1 (11760418_a_at) / Fold change /veh RCAN1 (11760418_a_at) / RFU FAM167A (11723789_a_at) / Fold change /veh FAM167A (11723789_a_at) / RFU FAM26E (11764081_at) / Fold change /veh FAM26E (11764081_at) / RFU ISYNA1 (11749810_s_at) / Fold change /veh ISYNA1 (11749810_s_at) / RFU ACY1 (11761880_at) / Fold change /veh ACY1 (11761880_at) / RFU 11764098_at / Fold change /veh 11764098_at / RFU SAMD14 (11745864_x_at) / Fold change /veh SAMD14 (11745864_x_at) / RFU NPB (11741838_a_at) / Fold change /veh NPB (11741838_a_at) / RFU TMPRSS6 (11731388_a_at) / Fold change /veh TMPRSS6 (11731388_a_at) / RFU KRTAP10-2 (11738614_at) / Fold change /veh KRTAP10-2 (11738614_at) / RFU ARHGAP8 /// PRR5-ARHGAP8 (11727945_x_at) / Fold change /veh ARHGAP8 /// PRR5-ARHGAP8 (11727945_x_at) / RFU KRTAP5-7 /// NADSYN1 (11734609_at) / Fold change /veh KRTAP5-7 /// NADSYN1 (11734609_at) / RFU RASL12 (11751679_a_at) / Fold change /veh RASL12 (11751679_a_at) / RFU CDKN2B (11736163_a_at) / Fold change /veh CDKN2B (11736163_a_at) / RFU PRF1 (11729649_at) / Fold change /veh PRF1 (11729649_at) / RFU, ZNF638 /// ZNF638-IT1 / Fold change vs veh, ZNF638 /// ZNF638-IT1 / RFU, PANK3 / Fold change vs veh, PANK3 / RFU, SH3YL1 / Fold change vs veh, SH3YL1 / RFU, ZEB2 / Fold change vs veh, ZEB2 / RFU, NRIP1 / Fold change vs veh, NRIP1 / RFU, PTTG1IP / Fold change vs veh, PTTG1IP / RFU, CAPN2 / Fold change vs veh, CAPN2 / RFU, MED14 / Fold change vs veh, MED14 / RFU, SNORA58 / Fold change vs veh, SNORA58 / RFU, C1orf63 / Fold change vs veh, C1orf63 / RFU, LRRFIP1 / Fold change vs veh, LRRFIP1 / RFU, NDUFAF7 / Fold change vs veh, NDUFAF7 / RFU, SLC12A2 / Fold change vs veh, SLC12A2 / RFU, IBTK / Fold change vs veh, IBTK / RFU, ESF1 / Fold change vs veh, ESF1 / Fold change vs veh, TMEM50B / RFU, TAOK1 / Fold change vs veh, TAOK1 / RFU, ACBD3 / Fold change vs veh, ACBD3 / RFU, TMA16 / Fold change vs veh, TMA16 / RFU, RWDD3 / Fold change vs veh, RWDD3 / RFU, BCAT1 / Fold change vs veh, BCAT1 / RFU, EDEM3 / Fold change vs veh, EDEM3 / RFU, TMEM33 / Fold change vs veh, TMEM33 / RFU, WDR75 / Fold change vs veh, WDR75 / RFU, AHCTF1 / Fold change vs veh, AHCTF1 / RFU, TFRC / Fold change vs veh, TFRC / RFU, ZDHHC17 / Fold change vs veh, ZDHHC17 / RFU, NOM1 / Fold change vs veh, NOM1 / RFU, ARL8B / Fold change vs veh, ARL8B / RFU, ZBTB11 / Fold change vs veh, ZBTB11 / RFU, TAMM41 / Fold change vs veh, TAMM41 / RFU, KIAA1704 /// LOC100996395 / Fold change vs veh, KIAA1704 /// LOC100996395 / RFU, ING1 / Fold change vs veh, ING1 / RFU, TRMT61B / Fold change vs veh, TRMT61B / RFU, FUBP3 / Fold change vs veh, FUBP3 / RFU, TP53 / Fold change vs veh, TP53 / RFU, TNKS2 / Fold change vs veh, TNKS2 / RFU, ZFP14 / Fold change vs veh, ZFP14 / RFU, ACTR2 / Fold change vs veh, ACTR2 / RFU, PPP3R1 / Fold change vs veh, PPP3R1 / RFU, PIK3R1 / Fold change vs veh, PIK3R1 / RFU, HNRNPA1 / Fold change vs veh, HNRNPA1 / RFU, RNF170 / Fold change vs veh, RNF170 / RFU, ZNF28 / Fold change vs veh, ZNF28 / RFU, RNGTT / Fold change vs veh, RNGTT / RFU, OGT / Fold change vs veh, OGT / RFU, BRD1 / Fold change vs veh, BRD1 / RFU, MARS / Fold change vs veh, MARS / RFU, ZNF655 / Fold change vs veh, ZNF655 / RFU, FAHD1 / Fold change vs veh, FAHD1 / RFU, BDP1 / Fold change vs veh, BDP1 / RFU, LRRCC1 / Fold change vs veh, LRRCC1 / RFU, ARID1A / Fold change vs veh, ARID1A / RFU, ZNF146 / Fold change vs veh, ZNF146 / RFU, ZNF330 / Fold change vs veh, ZNF330 / RFU, GPN3 / Fold change vs veh, GPN3 / RFU, C9orf123 / Fold change vs veh, C9orf123 / RFU, N4BP2L2 / Fold change vs veh, N4BP2L2 / RFU, ARFIP1 / Fold change vs veh, ARFIP1 / RFU, FAM179B / Fold change vs veh, FAM179B / RFU, BCL10 / Fold change vs veh, BCL10 / RFU, UHRF1BP1L / Fold change vs veh, UHRF1BP1L / RFU, BET1 / Fold change vs veh, BET1 / RFU, CNOT2 / Fold change vs veh, CNOT2 / RFU, ZNF268 / Fold change vs veh, ZNF268 / Fold change vs veh, ZNF507 / RFU, DGCR2 / Fold change vs veh, DGCR2 / RFU, WDSUB1 / Fold change vs veh, WDSUB1 / Fold change vs veh, HSP90B1 /// MIR3652 / RFU, ADSS / Fold change vs veh, ADSS / RFU, GK / Fold change vs veh, GK / RFU, ZNF148 / Fold change vs veh, ZNF148 / RFU, TAF9 / Fold change vs veh, TAF9 / RFU, SLC1A5 / Fold change vs veh, SLC1A5 / RFU, SLMO2 / Fold change vs veh, SLMO2 / RFU, ABCC4 / Fold change vs veh, ABCC4 / RFU, LOC101060439 /// RAP1B / Fold change vs veh, LOC101060439 /// RAP1B / RFU, RFX7 / Fold change vs veh, RFX7 / RFU, GTPBP10 / Fold change vs veh, GTPBP10 / RFU, CNEP1R1 / Fold change vs veh, CNEP1R1 / RFU, BIVM-ERCC5 /// ERCC5 / Fold change vs veh, BIVM-ERCC5 /// ERCC5 / RFU, ILF3 / Fold change vs veh, ILF3 / RFU 11762660_at / Fold change /veh 11762660_at / RFU VCAN (11757783_s_at) / Fold change /veh VCAN (11757783_s_at) / RFU DDX43 (11728927_at) / Fold change /veh DDX43 (11728927_at) / RFU KRT8 (11758188_x_at) / Fold change /veh KRT8 (11758188_x_at) / RFU NKD1 (11759106_at) / Fold change /veh NKD1 (11759106_at) / RFU SRD5A1 (11742802_a_at) / Fold change /veh SRD5A1 (11742802_a_at) / RFU TPSAB1 /// TPSB2 (11721975_s_at) / Fold change /veh TPSAB1 /// TPSB2 (11721975_s_at) / RFU GSTM3 (11746129_a_at) / Fold change /veh GSTM3 (11746129_a_at) / RFU IL23R (11737362_x_at) / Fold change /veh IL23R (11737362_x_at) / RFU TMEM51 (11727254_a_at) / Fold change /veh TMEM51 (11727254_a_at) / RFU PIWIL2 (11732686_x_at) / Fold change /veh PIWIL2 (11732686_x_at) / RFU ORM1 (11744905_x_at) / Fold change /veh ORM1 (11744905_x_at) / RFU CCDC152 (11743942_at) / Fold change /veh CCDC152 (11743942_at) / RFU ECM1 (11717891_a_at) / Fold change /veh ECM1 (11717891_a_at) / RFU IL23R (11748794_a_at) / Fold change /veh IL23R (11748794_a_at) / RFU TNFAIP8L3 (11732012_x_at) / Fold change /veh TNFAIP8L3 (11732012_x_at) / RFU MBOAT4 (11741988_at) / Fold change /veh MBOAT4 (11741988_at) / RFU 11764193_at / Fold change /veh 11764193_at / RFU TMEM53 (11763286_at) / Fold change /veh TMEM53 (11763286_at) / RFU MAGEB2 (11727129_at) / Fold change /veh MAGEB2 (11727129_at) / RFU TMEM200A (11744735_a_at) / Fold change /veh TMEM200A (11744735_a_at) / RFU CCDC152 (11751479_a_at) / Fold change /veh CCDC152 (11751479_a_at) / RFU FAM211A (11726209_a_at) / Fold change /veh FAM211A (11726209_a_at) / RFU RGS16 (11746705_a_at) / Fold change /veh RGS16 (11746705_a_at) / RFU VCAN (11755009_s_at) / Fold change /veh VCAN (11755009_s_at) / RFU RHOB (11743442_s_at) / Fold change /veh RHOB (11743442_s_at) / RFU RGS16 (11720943_a_at) / Fold change /veh RGS16 (11720943_a_at) / RFU RGS16 (11720944_at) / Fold change /veh RGS16 (11720944_at) / RFU, VPS4B / Fold change vs veh, VPS4B / RFU, CREB1 / Fold change vs veh, CREB1 / RFU, DNAJC13 / Fold change vs veh, DNAJC13 / RFU, GNAQ / Fold change vs veh, GNAQ / RFU, CDK5R1 / Fold change vs veh, CDK5R1 / RFU, ZRANB3 / Fold change vs veh, ZRANB3 / RFU, CUL4A / Fold change vs veh, CUL4A / RFU, CCNY / Fold change vs veh, CCNY / RFU, UFL1 / Fold change vs veh, UFL1 / RFU, COG3 / Fold change vs veh, COG3 / RFU, DIAPH2 / Fold change vs veh, DIAPH2 / RFU, SKA2 / Fold change vs veh, SKA2 / RFU, AFF3 / Fold change vs veh, AFF3 / RFU, LMF1 / Fold change vs veh, LMF1 / RFU, IPO11 / Fold change vs veh, IPO11 / RFU, DFFB / Fold change vs veh, DFFB / RFU, FOXP1 / Fold change vs veh, FOXP1 / RFU, CARD8 / Fold change vs veh, CARD8 / RFU, STRN3 / Fold change vs veh, STRN3 / RFU, ADK / Fold change vs veh, ADK / RFU, RASSF2 / Fold change vs veh, RASSF2 / RFU, WIPF1 / Fold change vs veh, WIPF1 / RFU, LARP1B / Fold change vs veh, LARP1B / RFU, RASA1 / Fold change vs veh, RASA1 / RFU, RB1 / Fold change vs veh, RB1 / RFU, PPFIA1 / Fold change vs veh, PPFIA1 / RFU, MAT2A / Fold change vs veh, MAT2A / RFU, CCT5 / Fold change vs veh, CCT5 / RFU, WDR92 / Fold change vs veh, WDR92 / RFU, CUX1 / Fold change vs veh, CUX1 / RFU, TTC7A / Fold change vs veh, TTC7A / RFU, TMEM135 / Fold change vs veh, TMEM135 / RFU, DEPTOR / Fold change vs veh, DEPTOR / RFU, CPM / Fold change vs veh, CPM / RFU, DNAJB6 / Fold change vs veh, DNAJB6 / RFU, CACNA2D3 / Fold change vs veh, CACNA2D3 / RFU, DTX4 / Fold change vs veh, DTX4 / RFU, TFCP2 / Fold change vs veh, TFCP2 / RFU, GMCL1 /// GMCL1P1 / Fold change vs veh, GMCL1 /// GMCL1P1 / RFU, AEBP2 / Fold change vs veh, AEBP2 / RFU, SNHG1 /// SNORD22 /// SNORD25 /// SNORD26 /// SNORD27 /// SNORD28 /// SNORD29 /// SNORD31 / Fold change vs veh, SNHG1 /// SNORD22 /// SNORD25 /// SNORD26 /// SNORD27 /// SNORD28 /// SNORD29 /// SNORD31 / Fold change (Aza/veh), C12orf56 (ProbeSet 11735607_a_at) / Fold change (ACY-1035/veh), C12orf56 (ProbeSet 11735607_a_at) / Fold change (Aza/veh), FGFR1OP (ProbeSet 11751329_s_at) / Fold change (ACY-1035/veh), FGFR1OP (ProbeSet 11751329_s_at) / Fold change (Aza/veh), VPS36 (ProbeSet 11739960_a_at) / Fold change (ACY-1035/veh), VPS36 (ProbeSet 11739960_a_at) / RFU SYPL1 (11715823_x_at) / Fold change /veh SYPL1 (11715823_x_at) / RFU IGFBP7 (11715501_s_at) / Fold change /veh IGFBP7 (11715501_s_at) / RFU REEP3 (11722064_at) / Fold change /veh REEP3 (11722064_at) / RFU IGLL1 (11728026_x_at) / Fold change /veh IGLL1 (11728026_x_at): dose or concentration left out as unconfirmed
Conditions: ProbeSet 11741311_a_at; LIST B

Nc1ccc(-c2cccs2)cc1NC(=O)c1ccc2c(c1)cc(C1CC1)n2CCN1CCOCC1 [ACY-1035]
RFU, ZNF655: 32.95 RFU
